In this assay the target is Sigma non-opioid intracellular receptor 1 (Cavia porcellus) (UniProt Q60492). The assay can be described thus: Inhibition of [3H](+)-pentazocine binding to sigma-1 receptor in guinea pig brain membranes.

Each structure is given as a SMILES string.

The values below come from BindingDB's records for doi:10.1021/jm9800447 (The George Washington University Medical Center, 1998).

Sequence of Sigma non-opioid intracellular receptor 1 (Cavia porcellus) (Q60492 whole entry, looked up): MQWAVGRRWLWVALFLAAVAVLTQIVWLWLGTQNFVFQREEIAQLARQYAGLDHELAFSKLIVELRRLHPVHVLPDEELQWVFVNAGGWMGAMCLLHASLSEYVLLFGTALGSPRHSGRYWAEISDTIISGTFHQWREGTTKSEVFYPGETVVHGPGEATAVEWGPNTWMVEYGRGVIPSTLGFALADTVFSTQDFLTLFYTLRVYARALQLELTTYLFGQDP

`O=S(=O)(NCCN1CCCCC1)c1ccc(Br)cc1` [4-Bromo-N-(2-piperidin-1-yl-ethyl)-benzenesulfonamide] had a Ki of 1.54 nM. That is a single-digit nanomolar value.

Consider `CN(CCN1CCCCCC1)S(=O)(=O)c1ccc(I)cc1` [N-(2-Azepan-1-yl-ethyl)-4-iodo-N-methyl-benzenesulfonamide], for which the affinity corresponds to a Ki of 0.14 nM. This Ki is about 11-fold lower than that of the molecule before.

For `O=S(=O)(NCCN1CCCCCC1)c1ccc(Br)cc1` [N-(2-Azepan-1-yl-ethyl)-4-bromo-benzenesulfonamide], the inhibitory constant (Ki) is 0.63 nM. In the case of `CCN(CC)CCNS(=O)(=O)c1ccc(I)cc1` [N-(2-Diethylamino-ethyl)-4-iodo-benzenesulfonamide] it was 4.97 nM. For the molecule `CN(CCN1CCCCCC1)S(=O)(=O)c1ccc(Br)cc1` [N-(2-Azepan-1-yl-ethyl)-4-bromo-N-methyl-benzenesulfonamide], the Ki amounted to 0.18 nM. In the case of `COc1ccc(S(=O)(=O)N(C)CCN2CCCCCC2)cc1I` [N-(2-Azepan-1-yl-ethyl)-3-iodo-4-methoxy-N-methyl-benzenesulfonamide] it was 3.11 nM; in that of `O=S(=O)(NCCN1CCCC1)c1ccc(I)cc1` [4-Iodo-N-(2-pyrrolidin-1-yl-ethyl)-benzenesulfonamide], 4.3 nM.

Consider `CCN(CC)CCNS(=O)(=O)c1ccc(Br)cc1` [4-Bromo-N-(2-diethylamino-ethyl)-benzenesulfonamide], for which affinity was put at a Ki of 10.1 nM.

The molecule `COc1ccc(S(=O)(=O)NCCN2CCCCC2)cc1I` [3-Iodo-4-methoxy-N-(2-piperidin-1-yl-ethyl)-benzenesulfonamide] yielded a Ki of 41.8 nM. Regarding `O=S(=O)(NCCN1CCCC1)c1ccc(Br)cc1` [4-Bromo-N-(2-pyrrolidin-1-yl-ethyl)-benzenesulfonamide], the affinity, expressed as Ki, was 6.65 nM.

In turn, `O=S(=O)(NCCN1CCCCC1)c1ccc(I)cc1` [4-Iodo-N-(2-piperidin-1-yl-ethyl)-benzenesulfonamide] gave a Ki of 0.46 nM. The molecule `O=S(=O)(NCCN1CCCCCC1)c1ccc(I)cc1` [N-(2-Azepan-1-yl-ethyl)-4-iodo-benzenesulfonamide] gave a Ki of 1.32 nM.

Usually Ki stands for a dissociation constant, usually derived from enzyme kinetics or from competition with a known ligand. Higher therefore signals a looser hold on the target.
